In one assay the test system is IL-1β. The assay can be described thus: PBMC assay: inhibition of IL-1β release after LPS stimulation (MSD). The format is cell-based. The following applies: human PBMCs, 100 ng/ml LPS for 6 hrs, MSD, 96 well plates, read-out: IL1β IC50. In short, it runs like this: (§1)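 TNF (EC50) and IL-1β (IC50) were quantified by MSD in supernatants after 6 h stimulation with 100 ng/ml LPS. Thawed healthy-donor PBMCs, 7.5×10^4 per well, were exposed to 1:3 compound dilutions for 30 min beforehand at 37 °C.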

The test system of another assay is TNF. The assay can be described thus: PBMC assay: TNF cytokine levels after LPS stimulation (MSD). The following applies: human PBMCs, 100 ng/ml LPS for 6 hrs. It counts as cell-based. In outline:
as §1

Consider 25 molecules from patent US20230202989A1, “COMPOUNDS” (JANSSEN PHARMACEUTICA NV, priority 2020, published 2023).

The IC50 is the midpoint of a concentration-inhibition curve. As a reminder, the EC50 is the midpoint of the concentration-response curve. High values mean lower potency in that assay, low ones higher potency in that assay.

Like-named read-outs stand apart in the source and are kept apart here. Where only a bound is given, the exact number is not on record here.

`CC(C)c1nn(CC(=O)NC2CC(C(F)(F)F)C2)c(=O)c2ccc(C(F)(F)F)cc12` (centres unmarked) [Final Cpd X77]: in the assay on IL-1β (Homo sapiens, PBMC, 6 h), the IC50 was determined as 830 nM. In the assay with TNF (Homo sapiens, PBMC, 6 h), the EC50 is > 20000 nM.

For `CC(C)c1nn(CC(=O)N[C@H]2CC[C@](C)(O)CC2)c(=O)c2ccc(C(F)(F)F)cc12` [Final Cpd X78], the IC50 in the assay with IL-1β (Homo sapiens, PBMC, 6 h) came to 861 nM. In the assay on TNF (Homo sapiens, PBMC, 6 h), the EC50 was > 20000 nM.

`Cc1cnc2ccc(NC(=O)Cn3nc(C(C)C)c4cc(C(F)(F)F)ccc4c3=O)cn12` [Final Cpd X79]: the IC50 in the assay on IL-1β (Homo sapiens, PBMC, 6 h) stood at 865 nM. For the same molecule, in the assay on TNF (Homo sapiens, PBMC, 6 h), the EC50 was > 20000 nM.

For the molecule `CC(C)c1nn(CC(=O)Nc2ncc3c(ncn3C)n2)c(=O)c2ccc(C(F)(F)F)cc12` [Final Cpd X80], in the assay with IL-1β (Homo sapiens, PBMC, 6 h), the concentration for half-maximal inhibition (IC50) was determined as 866 nM. Besides, the EC50 with TNF (Homo sapiens, PBMC, 6 h) was > 20000 nM.

For the molecule `CC(C)c1nn(CC(=O)N[C@H]2CN(CC[C@H](C)O)CC[C@H]2O)c(=O)c2ccc(C(F)(F)F)cc12` [Final Cpd X81], in the assay with IL-1β (Homo sapiens, PBMC, 6 h), the IC50 is 879 nM. For the same molecule, the EC50 with TNF (Homo sapiens, PBMC, 6 h) is > 20000 nM.

Consider `CC(C)c1nn(CC(=O)Nc2ccc3nncn3n2)c(=O)c2c(O)cc(C(F)(F)F)cc12` [Final Cpd X82], for which the IC50 with IL-1β (Homo sapiens, PBMC, 6 h) was determined as 888 nM. Besides, the EC50 with TNF (Homo sapiens, PBMC, 6 h) came out at 12900 nM.

In the case of `CC(C)c1nn(CC(=O)N[C@H]2CN(C3CC(F)(F)C3)CC[C@H]2O)c(=O)c2ccc(C(F)(F)F)cc12` [Final Cpd X83], the IC50 with IL-1β (Homo sapiens, PBMC, 6 h) stood at 910 nM. Besides, the midpoint of the response in the assay with TNF (Homo sapiens, PBMC, 6 h), the EC50, lay at 12900 nM.

Take `C[C@]1(O)C[C@@H](NC(=O)Cn2nc(C(O)C(F)(F)F)c3cc(C(F)(F)F)ccc3c2=O)C1` (some centres unmarked) [Final Cpd X84]: the IC50 with IL-1β (Homo sapiens, PBMC, 6 h) was determined as 911 nM. In the assay on TNF (Homo sapiens, PBMC, 6 h), the EC50 was > 20000 nM.

Regarding `CC(c1nn(CC(=O)N[C@H]2C[C@@](C)(O)C2)c(=O)c2ccc(C(F)(F)F)cc12)C(F)(F)F` (some centres unmarked) [Final Cpd X85], the IC50 with IL-1β (Homo sapiens, PBMC, 6 h) is 915 nM. In addition, the EC50 in the assay with TNF (Homo sapiens, PBMC, 6 h) is > 20000 nM.

As for `CC(C)c1nn(CC(=O)N[C@@H]2CCC[C@H]2O)c(=O)c2ccc(C(F)(F)F)cc12` [Final Cpd X86], the IC50 with IL-1β (Homo sapiens, PBMC, 6 h) is 915 nM. Besides, in the assay on TNF (Homo sapiens, PBMC, 6 h), the EC50 was > 20000 nM.

For the molecule `CC(C)c1nn(CC(=O)Nc2ccc3nnc(C(F)(F)F)n3n2)c(=O)c2ccc(C(F)(F)F)cc12` [Final Cpd X87], the IC50 in the assay with IL-1β (Homo sapiens, PBMC, 6 h) was 916 nM. Moreover, the EC50 with TNF (Homo sapiens, PBMC, 6 h) was > 20000 nM.

In the case of `CC(C)c1nn(CC(=O)Nc2ccc3c(C#N)ncn3c2)c(=O)c2ccc(C(F)(F)F)cc12` [Final Cpd X88], the concentration for half-maximal inhibition (IC50) with IL-1β (Homo sapiens, PBMC, 6 h) turned out to be 924 nM. Moreover, in the assay on TNF (Homo sapiens, PBMC, 6 h), the EC50 was > 20000 nM.

For `CC(C)c1nn(CC(=O)NC2CCc3nncn3C2)c(=O)c2ccc(C(F)(F)F)cc12` (centres unmarked) [Final Cpd X89], the IC50 in the assay on IL-1β (Homo sapiens, PBMC, 6 h) was 924 nM. For the same molecule, in the assay with TNF (Homo sapiens, PBMC, 6 h), the EC50 was > 20000 nM.

For `CC(C)c1nn(CC(=O)N[C@H]2CC[C@@H]2O)c(=O)c2ccc(C(F)(F)F)cc12` [Final Cpd X91], in the assay with IL-1β, the IC50 is 954 nM. Moreover, the EC50 in the assay on TNF was > 20000 nM.

Consider `Cc1cc(NC(=O)Cn2nc(C(C)C)c3cc(C(F)(F)F)ccc3c2=O)cn2ccnc12` [Final Cpd X92], for which the IC50 in the assay on IL-1β (Homo sapiens, PBMC, 6 h) was determined as 970 nM. In addition, the EC50 in the assay on TNF (Homo sapiens, PBMC, 6 h) is > 20000 nM.

As to `Cn1nc(NC(=O)Cn2nc(C3CC3)c3cc(C(F)(F)F)ccc3c2=O)ccc1=O` [Final Cpd X93], the IC50 in the assay with IL-1β (Homo sapiens, PBMC, 6 h) came out at 1010 nM. In addition, the EC50 in the assay on TNF (Homo sapiens, PBMC, 6 h) is > 20000 nM.

On to `CC(C)c1nn(CC(=O)N[C@H]2C[C@H](O)C2)c(=O)c2ccc(C(F)(F)F)cc12` [Final Cpd X94], for which the IC50 in the assay on IL-1β (Homo sapiens, PBMC, 6 h) is 1070 nM. In the assay with TNF (Homo sapiens, PBMC, 6 h), the EC50 was > 20000 nM.

On to `CC(C)c1nn(CC(=O)N[C@@H]2CC[C@@H]2O)c(=O)c2ccc(C(F)(F)F)cc12` [Final Cpd X95], for which the IC50 with IL-1β (Homo sapiens, PBMC, 6 h) turned out to be 1100 nM. For the same molecule, the EC50 with TNF (Homo sapiens, PBMC, 6 h) is > 20000 nM.

Turning to `CC(C)c1nn(CC(=O)Nc2nc(Cl)c3ncn(C)c3n2)c(=O)c2ccc(C(F)(F)F)cc12` [Final Cpd X96], the IC50 with IL-1β (Homo sapiens, PBMC, 6 h) turned out to be 1110 nM. Further, in the assay with TNF (Homo sapiens, PBMC, 6 h), the EC50 was > 20000 nM.

On to `CC(C)c1nn(CC(=O)Nc2ccc3nc(C#N)cn3c2)c(=O)c2ccc(C(F)(F)F)cc12` [Final Cpd X97], for which the IC50 with IL-1β (Homo sapiens, PBMC, 6 h) worked out at 1120 nM. Besides, in the assay with TNF (Homo sapiens, PBMC, 6 h), the EC50 is > 20000 nM.

In the case of `CC(C)c1nn(CC(=O)N[C@@H]2CCCC[C@H]2O)c(=O)c2ccc(C(F)(F)F)cc12` [Final Cpd X98], the IC50 in the assay on IL-1β (Homo sapiens, PBMC, 6 h) was found to be 1150 nM. The EC50 in the assay with TNF (Homo sapiens, PBMC, 6 h) was > 20000 nM.

Regarding `CC(C)c1nn(CC(=O)N[C@H]2C[C@H](C(C)(C)O)C2)c(=O)c2ccc(C(F)(F)F)cc12` [Final Cpd X99], the IC50 in the assay on IL-1β (Homo sapiens, PBMC, 6 h) turned out to be 1160 nM. In addition, the EC50 in the assay on TNF (Homo sapiens, PBMC, 6 h) is > 20000 nM.

On to `CC(C)c1nn(CC(=O)N[C@@H]2CC[C@](C)(O)C2)c(=O)c2ccc(C(F)(F)F)cc12` [Final Cpd X100], for which the IC50 with IL-1β (Homo sapiens, PBMC, 6 h) came out at 1260 nM. The EC50 with TNF (Homo sapiens, PBMC, 6 h) is > 20000 nM.

Consider `CC(C)c1nn(CC(=O)Nc2ccc3cnnn3c2)c(=O)c2ccc(C(F)(F)F)cc12` [Final Cpd X101], for which, in the assay on IL-1β (Homo sapiens, PBMC, 6 h), the IC50 was 1280 nM. In the assay on TNF (Homo sapiens, PBMC, 6 h), the EC50 was > 20000 nM.

For `COC(C)c1nn(CC(=O)Nc2ccc3nncn3c2)c(=O)c2ccc(C(F)(F)F)cc12` (centres unmarked) [Final Cpd X102], the IC50 in the assay with IL-1β (Homo sapiens, PBMC, 6 h) was found to be 1300 nM. Also, the EC50 in the assay with TNF (Homo sapiens, PBMC, 6 h) is > 20000 nM.
